According to patent US5770623A, “Argine antagonists for inhibition of systemic hypotension associated with nitric oxide production or endothelial derived relaxing factor” (Board of Regents, The University of Texas System, priority 1995, dated 1998):
“Also recorded” adds a separate entry of the source.

Columns and labels:
[1] = test system: mongrel dogs with TNF-induced hypotension; test: TNF-induced hypotension in anesthetized dogs; assay type: in vivo, dog; details: for effect of L-arginine on NMMA pressor effect (words): TNF- and NMMA-treated dogs
Experimental: Recombinant human TNF specific activity 2×10^7 units/mg, was from the Niposn Chemical Corporation, Tokyo, Japan. TNF was administered at a dose of 10 mcg/kg in a volume of 10 ml of phosphate buffered saline containing 2 mgs/ml of dog albumin. […] Arginine was obtained from Sigma Chemical Company, St. Louis, Mo.
(§1) Four conditioned mongrel dogs, 2 males and 2 females, weighing 28 to 30 kgs, were studied. Care of the animals were in accordance with the recommendation of the American Association for Accreditation of Laboratory Animals [DHEW(DHHS) publication no. (NIH) 78-23, revised, 1978]. On the day of the experiment, the dogs were fasted overnight. They were anesthetized with phenobarbital (10 mg/kg). They were then intubated orally with a #10 fr. endotracheal tube and ventilated with a Harvard pump ventilator at a rate of 12 breaths per minute and a tidal volume of 15 ml/kg. An arterial line was percutaneously placed in the femoral artery on the day of the experiment.
(§2) Mean (electronic) and phasic systemic arterial pressures (SAP) were continuously recorded on a Hewlett-Packard recording system (model 7758B) using strain gauge manometers (Hewlett-Packard model 1290A) which were connected to the arterial line. Heart rate (HR) was determined from an EKG tracing and continuously recorded on the Hewlett-Packard recording system. Oxyhemoglobin saturation (SaO2) was obtained using a pulse oximeter (BIOX 111, Boulder, Colo.). continuous time-series records of SAP, HR, and SaO2 were obtained using a Lab Master analog-to-digital convertor (16 channel, 12 bit, 30 kHz; Scientific Solutions, Inc.) sampling at 55 Hz and storing the 6 sec averages on a magnetic disk.

[2] = test system: nitroglycerin infused dogs; test: Nitroglycerin-induced hypotension in dogs (Example 2); assay type: in vivo, dog
Experimental: as §1, §2
This was followed by a compensatory decrease in the HR with a return of the BP to baseline. The NMMA-induced bradycardia lasted 31 minutes. This response was not observed in animals which had been previously treated with TNF. In a subsequent experiment (FIG. 7a) the hypotensive response to TNF was especially severe, with a decrease in BP from 125 mm to 36 mmHg. […] This was associated with a decrease in the HR from 101 to 92 beats/minute. […] In a second control study nitroglycerin was infused at a rate of 28 μg/kg/minute, IV, to lower the blood pressure to the same level as that observed with tumor necrosis factor (FIG. 7c).

[3] = test system: guinea pig pulmonary artery rings; test: Relaxation of preconstricted guinea pig pulmonary artery rings
[4] = test system: human internal mammary artery; test: ACh-induced relaxation of human internal mammary artery; details: for effect on ACh-induced vasorelaxation: NE-preconstricted, FIG. 11
Text: FIG. 11 contains representative physiograph tracings which depict ACh-induced relaxation of NE-preconstricted rings prepared from rabbit aorta (upper panel) and human internal mammary artery (lower panel).

control dogs = test: L-NMA in control dogs (Example 4); assay type: in vivo, dog; details: for increase in blood pressure (SAP) by L-NMA: control dogs, L-NMA 20 mg/kg, n=4
Experimental: (§3) Animals: Studies were carried out on 12 conditioned mongrel dogs (9 males and 3 females) weighing 22-32 kg (avg=25.3 kg). Animal care was in accordance with the recommendations of the American Association for Accreditation of Laboratory Animal Care, and met all standards prescribed by the Guide for the Care and Use of Laboratory Animals (Guide for the Care and Use of Laboratory Animals (1978) Dept. of Health, Education and Welfare, Washington, D.C. (Publ. No. 78-23). Animal protocols were approved by The University of Texas Animal Welfare Committee. The dogs were fasted overnight prior to the day of experimentation. They were anesthetized with sodium pentobarbital (25 mg/kg I.v.). Dogs were then endotracheally intubated and ventilated with a piston-driven respirator (Harvard instruments) using room air at a tidal volume of 20 ml/kg and at a rate of 10 to 12 breaths per minute, adjusted to achieve a normal arterial pH and pCO2 (Instrumentation Laboratories 1L13012 pH/Blood Gas Analyzer). Catheters were placed percutaneously into the femoral and pulmonary arteries; In the latter, a flow-directed thermal-dilation catheter was used (Abbott Critical Care Systems).
(§4) Physiologic measurements: Mean SAP and heart rate were continuously monitored (Parametron 7048 Monitoring System, Roche) and stored on a magnetic disk using an analog-to-digital converter (Scientific Solutions, Inc.). Cardiac output (CO) was determined as the mean of six measurements by thermal-dilution. Systemic vascular resistance was calculated as (SAP X80)/CO and expressed as […].
(§5) Protocol: After the blood pressure and heart rate stabilized, endotoxin (40 ug/kg, in 10 ml of phosphate-buffered saline (PBS), pH 7.4) was infused i.v. over 2 minutes. This dose of endotoxin typically induces severe and often lethal cardiovascular collapse in the dog. Blood pressure was monitored, and when either SAP fell below 60 mmHg or a stable nadir in systemic arterial pressure (SAP) was maintained for 10 minutes, L-NMA was administered (20 mg/kg in 5 ml of PBS i.v. over 1 min.). In most experiments, L-arginine (400 mg/kg in 20 mi PBS) was administered ten minutes later by i.v. infusion over 2 minutes. In control experiments, dogs without prior exposure to endotoxin received L-NMA alone. To simulate the hypotension observed in dogs receiving endotoxin, one group of dogs received a continuous i.v. infusion of nitroglycerin (2 mg/ml) at a rate adjusted to maintain the SAP at 60-70 mm Hg. Nitroglycerin-treated dogs then received L-NMA (20 mg/kg) and 20 minutes later L-arginine was administered […].

[5] = test system: nitroglycerin-treated dogs; test: Nitroglycerin-induced hypotension in dogs (Example 4); assay type: in vivo, dog; details: for Cardiac Output / Heart Rate / Systemic Arterial Pressure / Systemic Vascular Resistance: Table 1, Study 2: Nitroglycerin-treated (n = 3)
Experimental: as §3, §4, §5
In an additional series of experiments, blood pressure was reduced to 65 mm Hg by continuous i.v. infusion of nitroglycerin, a hypotensive agent that forms NO by an L-arginine and NO synthetase-independent mechanism.

[6] = test system: vascular EDRF/NO synthesis; details: Sakuma et al., cited from earlier work

**Q.** What does the source list for `N=C(N)NCCC[C@H](N)C(=O)O` [L-arginine, reference compound]?
**A.** blood pressure after L-arginine ([1]; FIG. 7a, after TNF and NMMA): 37 mmHg; effect of L-arginine on NMMA pressor effect (words) [1]: antagonized; also recorded: completely reversed; also recorded: rapid decrease of blood pressure; effect of L-arginine on NMMA pressor effect (words) ([1]; listed as arginine): reversed; effect of L-arginine after NMMA ([2]; nitroglycerin infused dogs): reversed this modest effect; effect on relaxation in the presence of NMMA ([3]; excess L-arginine): restored relaxation in the presence of NMMA; effect on ACh-induced vasorelaxation [4]: restores relaxation; effect of L-arginine on pressor effect of L-NMA (control dogs; 400 mg/kg): fully reversed the pressor effect of L-NMA; Cardiac Output [5]: 5.15 ± 1.08 L/min; Heart Rate [5]: 148.7 ± 19.9 beats/min; Systemic Arterial Pressure [5]: 56.9 ± 13 mmHg; Systemic Vascular Resistance [5]: 1088.2 ± 491 dynes-sec/cm^5; restoration of EDRF/NO synthesis ([6]; excess L-arginine after L-NMA): restored

**Q.** With `CNC(=N)NCCC[C@H](N)C(=O)O` [NMMA, N^G -methyl-L-arginine] as the molecule, how does the “blood pressure after NMMA” value ([1]; FIG. 7a, TNF-treated) read?
**A.** 115 mm

**Q.** And the “increase in blood pressure by NMMA” value ([1]; FIG. 7a, TNF-treated)?
**A.** 79 mm

**Q.** What about the “time to pressor effect” value ([1]; after TNF) of the same molecule?
**A.** ≤ 2 min

**Q.** And the “pressor response in TNF-hypotensive vs normotensive dogs” value ([1]; compared with normotensive dogs)?
**A.** much more dramatic in dogs with TNF-induced hypotension than in normotensive dogs

**Q.** And the “reversal of TNF-associated hypotension” value ([1]; dogs, TNF 10 mcg/kg)?
**A.** blocked; also recorded: reverse the hypotension

**Q.** And the “blood pressure increase by NMMA” value ([2]; nitroglycerin 28 μg/kg/minute IV)?
**A.** 14 mm

**Q.** And the “antagonism of nitroglycerin hypotension” value ([2]; similar level of hypotension)?
**A.** not antagonized

**Q.** And the “effect on vasodilatation by ACh, LTD4 and HIST” value ([3]; endothelium-dependent vasodilators)?
**A.** blocks endothelium-dependent relaxation; also recorded: blocks the action of ACh, LTD4 and HIST

**Q.** And the “inhibition of EDRF/NO synthesis” value ([3]; guinea pig pulmonary artery rings, 1 μM NE, ACh)?
**A.** served as inhibitors of EDRF/NO synthesis

**Q.** And the “inhibition of EDRF/NO in vascular preparation” value ([3]; guinea pig pulmonary artery, NMMA 100 μM)?
**A.** arginine reversible inhibitor of EDRF/NO

**Q.** And the “effect on vasodilatation by SNP” value ([3]; sodium nitroprusside, endothelium-independent)?
**A.** does not inhibit

**Q.** What about the “effect on ACh-induced vasorelaxation” value [4] of the same molecule?
**A.** attenuate ACh-induced vasorelaxation

**Q.** And the “inhibition of EDRF/NO in vascular preparation” value ([4]; human)?
**A.** arginine reversible inhibitor of EDRF/NO

**Q.** And the “Cardiac Output” value (control dogs; Table 2, control dogs (n = 4))?
**A.** 2.12 ± 0.26 L/min

**Q.** What about the “Heart Rate” value (control dogs; Table 2, control dogs (n = 4)) of the same molecule?
**A.** 82.5 ± 6.1 beats/min

**Q.** What about the “Systemic Arterial Pressure” value (control dogs; Table 2, control dogs (n = 4)) of the same molecule?
**A.** 153.8 ± 11.4 mmHg

**Q.** What about the “Systemic Vascular Resistance” value (control dogs; Table 2, control dogs (n = 4)) of the same molecule?
**A.** 5967 ± 523 dynes-sec/cm^5

**Q.** What about the “increase in blood pressure (SAP) by L-NMA” value (“increase … by L-NMA” for short) (control dogs; listed as L-NMA) of the same molecule?
**A.** 24.8±2.7 mmHg

**Q.** And the “increase … by L-NMA” value (control dogs; listed as N^G -methyl-L-arginine)?
**A.** 24.8±4.7 mmHg

**Q.** What about the “increase in SVR” value (control dogs; other two control dogs) of the same molecule?
**A.** about 1400 dynes-sec/cm^5

**Q.** What about the “decrease in cardiac output” value (control dogs; two of four control dogs) of the same molecule?
**A.** > 1.5 L/min

**Q.** And the “increase in SVR” value (control dogs; two of four control dogs with marked decrease of cardiac output)?
**A.** ≥ 3500 dynes-sec/cm^5

**Q.** What about the “HR, CO or SVR after L-NMA” value ([5]; L-NMA 20 mg/kg) of the same molecule?
**A.** without significant alteration in HR, CO, or SVR

**Q.** And the “Cardiac Output” value [5]?
**A.** 3.85 ± 0.8 L/min

**Q.** And the “Heart Rate” value [5]?
**A.** 191.7 ± 35.0 beats/min

**Q.** And the Systemic Arterial Pressure [5]?
**A.** 81.8 ± 3.5 mmHg

**Q.** What about the “Systemic Vascular Resistance” value [5] of the same molecule?
**A.** 1851 ± 399 dynes-sec/cm^5

**Q.** And the “increase … by L-NMA” value ([5]; nitroglycerin infusion, L-NMA 20 mg/kg, n=3)?
**A.** 17.1±5.0 mmHg

**Q.** And the “inhibition of vascular EDRF/NO synthesis” value ([6]; induced by acetylcholine and histamine)?
**A.** inhibit vascular EDRF/NO synthesis
